System: M. bovis BCG
Type: cell-based, Mycobacterium bovis BCG
Settings: 2xMIC90BCG

Structure (SMILES): CCCCCCCCC(C#N)(CCCN(C)CCc1ccc(OC)c(OC)c1)c1ccc(OC)c(OC)c1 (centres unmarked) [PhA2]
- reduction of CFUs (21-day time point): 10^5 fold
- regrowth in time-kill curve (21 days): no rebound in growth

Reference: article PMC12281142, “A potent phenylalkylamine disrupts mycobacterial membrane bioenergetics and augments bactericidal activity of bedaquiline” (iScience, 2025)
